Patent EP0449009A2, “Use of gallopamil for the preparation of medicaments for the treatment of acute renal failure” (KNOLL AG, priority 1990, dated 1991)

Tested on: Patienten, die an akutem Nierenversagen erkrankt waren
Test: Clinical study of gallopamil infusion in patients with acute renal failure
Type: in vivo
Method: Zum Nachweis der Wirksamkeit bei akutem Nierenversagen wurde Gallopamil 8 Patienten, die an akutem Nierenversagen erkrankt waren, über einen Zeitraum von 4 Stunden intrarenal in Dosierungen von 40 bis 160 µg/min kontinuierlich infundiert. Gleichzeitig wurde intravenös ein Diuretikum (Furosemid) in einer Konzentration von 40 µg/min über 24 Stunden verabreicht. Bei 2 weiteren Patienten wurde Gallopamil intravenös über Zeiträume von 3 und 24 Stunden in einer Menge von 40 µg/min infundiert.
In dieser Studie konnte bei 80 % der Patienten der deletäre Verlauf des akuten Nierenversagens gestoppt werden (siehe nachstehende Tabelle).

[1] = whole study: 8 patients 40 to 160 µg/min intrarenal over 4 h + Furosemid i.v., 2 patients 40 µg/min intravenous

In the case of COc1ccc(CCN(C)CCCC(C#N)(c2cc(OC)c(OC)c(OC)c2)C(C)C)cc1OC (stereo not drawn) [Gallopamil, 1-(3,4-Dimethoxyphenyl)-3-methylaza-7-cyan-7-(3,4,5-trimethoxyphenyl)-8-methylnonan], the “Kreatinin-Ausscheidung nach einem Behandlungstag” value (patient with G-6-PD (Glukose-6-phosphatdehydrogenasemangel), treatment begun 2 weeks after onset and after two dialyses, 83 µg/min intrarenal over 4 h + Furosemid 40 µg/min i.v. over 24 h, before treatment 0,8) is reported as 1,2 ml/min, the “Kreatininkonzentration im Blut nach sieben Behandlungstagen” value (patient with G-6-PD (Glukose-6-phosphatdehydrogenasemangel), treatment begun 2 weeks after onset and after two dialyses, 83 µg/min intrarenal over 4 h + Furosemid 40 µg/min i.v. over 24 h, before treatment 14,1) is reported as 14,6 mg/dl and the “Kreatinin-Ausscheidung nach einem Behandlungstag” value (patient with Malaria, treatment begun 2 weeks after onset and after two dialyses, 50 µg/min intrarenal over 4 h + Furosemid 40 µg/min i.v. over 24 h, before treatment 2,2) is reported as 3,7 ml/min. The “Kreatininkonzentration im Blut nach sieben Behandlungstagen” value (patient with Malaria, treatment begun 2 weeks after onset and after two dialyses, 50 µg/min intrarenal over 4 h + Furosemid 40 µg/min i.v. over 24 h, before treatment 12,7) was 5,5 mg/dl, the “Kreatinin-Ausscheidung nach einem Behandlungstag” value (patient with Malaria, 40 µg/min intrarenal over 4 h + Furosemid 40 µg/min i.v. over 24 h, before treatment 5,3) was 14,3 ml/min and the “Kreatininkonzentration im Blut nach sieben Behandlungstagen” value (patient with Malaria, 40 µg/min intrarenal over 4 h + Furosemid 40 µg/min i.v. over 24 h, before treatment 10,4) was 3,1 mg/dl. For the same molecule, the “Kreatininkonzentration im Blut nach sieben Behandlungstagen” value (patient with Rhabdomyolysis, 40 µg/min intravenous over 3 h, before treatment 5,2) was 5,9 mg/dl, the “Kreatinin-Ausscheidung nach einem Behandlungstag” value (patient with Rhabdomyolysis, 40 µg/min intravenous over 3 h, before treatment 8,9) was 3,6 ml/min and the “Kreatinin-Ausscheidung nach einem Behandlungstag” value (patient with Rhabdomyolysis, 80 µg/min intrarenal over 4 h + Furosemid 40 µg/min i.v. over 24 h, before treatment 4,0) was 5,1 ml/min. The “Kreatininkonzentration im Blut nach sieben Behandlungstagen” value (patient with Rhabdomyolysis, 80 µg/min intrarenal over 4 h + Furosemid 40 µg/min i.v. over 24 h, before treatment 10,1) was 9,3 mg/dl, the “Kreatininkonzentration im Blut nach sieben Behandlungstagen” value (patient with Schock, 40 µg/min intravenous over 24 h, before treatment 5,5) was 2,9 mg/dl and the “Kreatinin-Ausscheidung nach einem Behandlungstag” value (patient with Schock, 40 µg/min intravenous over 24 h, before treatment 10,4) was 17,9 ml/min. The “Kreatinin-Ausscheidung nach einem Behandlungstag” value (patient with Schock, 83 µg/min intrarenal over 4 h + Furosemid 40 µg/min i.v. over 24 h, before treatment 3,4) was 13,2 ml/min, the “Kreatininkonzentration im Blut nach sieben Behandlungstagen” value (patient with Schock, 83 µg/min intrarenal over 4 h + Furosemid 40 µg/min i.v. over 24 h, before treatment 4,7) was 1,1 mg/dl and the “Kreatinin-Ausscheidung nach einem Behandlungstag” value (patient with hypovolenischer Schock, 160 µg/min intrarenal over 4 h + Furosemid 40 µg/min i.v. over 24 h, before treatment 2,3) was 16,1 ml/min. The “Kreatininkonzentration im Blut nach sieben Behandlungstagen” value (patient with hypovolenischer Schock, 160 µg/min intrarenal over 4 h + Furosemid 40 µg/min i.v. over 24 h, before treatment 9,6) was 2,5 mg/dl, the “Kreatininkonzentration im Blut nach sieben Behandlungstagen” value (patient with septischer Schock, 83 µg/min intrarenal over 4 h + Furosemid 40 µg/min i.v. over 24 h, before treatment 10,6) was 1,3 mg/dl and the “Kreatinin-Ausscheidung nach einem Behandlungstag” value (patient with septischer Schock, 83 µg/min intrarenal over 4 h + Furosemid 40 µg/min i.v. over 24 h, before treatment 29,0) was 48,0 ml/min. For the same molecule, the “Patienten, bei denen auf eine Dialyse verzichtet werden konnte” value [1] was 90%, the “Patienten, bei denen der deletäre Verlauf des akuten Nierenversagens gestoppt werden konnte” value [1] was 80% and the “Überleben des akuten Nierenversagens” value [1] was “alle Patienten überlebten”.
